Among the test systems are OVCAR-3; HCT-116; A549; HCC 2998; A498; NCI-H226; U-251; NCI/ADR-RES; KM12; UO-31; UACC-257; NCI-H460; ACHN; CAKI-1; NCI-H23; OVCAR-5; OVCAR-4; PC-3; HCT-15; Malme-3M.
Experiment in all cases: NCI-60 cell line screen, 48 h

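Interpolation was linear, between the two tested concentrations surrounding the appropriate level; five concentrations were tested over 48 hours in 96-well plates. The concentration for 50% growth inhibition is given as GI50.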 The source made the active and inactive calls. Rule as the data show it: active = GI50 up to about 1.1 µM and inactive = higher.

Regarding `CC1CC[C@@]2(OC1)O[C@H]1[C@H](O)[C@H]3[C@@H]4CC[C@H]5C[C@@H](OC6OC(CO)C(OC7OC(CO)C(O)C(OC8OCC(O)C(O)C8O)C7OC7OC(CO)C(O)C(O)C7OC7OC(CO)C(O)C(O)C7O)C(O)C6O)[C@H](O)C[C@]5(C)[C@H]4CC[C@]3(C)[C@H]1[C@@H]2C` (stereo not given in full), the GI50 with OVCAR-3 was 2.85 µM (inactive); in the experiment on HCT-116 it was 4.59 µM (inactive); in the experiment with A549, 3.47 µM (inactive); with HCC 2998, > 10 µM (inactive); with A498, > 10 µM (inactive); with NCI-H226 it was > 10 µM (inactive). Moreover, the GI50 with U-251 is 5.01 µM (inactive); with NCI/ADR-RES, > 10 µM (inactive); with KM12 it was 4.29 µM (inactive); in the experiment with UO-31 it was 4.18 µM (inactive); in the experiment with UACC-257, > 10 µM (inactive); with NCI-H460, > 10 µM (inactive). In addition, the GI50 in the experiment on ACHN is > 10 µM (inactive); with CAKI-1, > 10 µM (inactive); with NCI-H23, 5.24 µM (inactive); in the experiment with OVCAR-5 it was > 10 µM (inactive); with OVCAR-4, 7.08 µM (inactive); in the experiment with PC-3 it was 2.7 µM (inactive). Further, the GI50 with HCT-15 is greater than 10 µM; with Malme-3M, > 10 µM (inactive).

As for `CC1=C(C)SC(=C2Sc3c(n(C)c(=O)n(C)c3=O)S2)S1`, the GI50 is 71.3 µM (inactive) in the experiment on OVCAR-3; 10.7 µM (inactive) in the experiment with HCT-116; 42.5 µM (inactive) with A549; > 100 µM (inactive) in the experiment with HCC 2998; 27.4 µM (inactive) in the experiment with A498; 20 µM (inactive) in the experiment with NCI-H226. The GI50 was 4.14 µM (inactive) with U-251; 55.3 µM (inactive) with NCI/ADR-RES; > 100 µM (inactive) in the experiment with KM12; 59 µM (inactive) in the experiment on UO-31; > 100 µM (inactive) in the experiment with UACC-257; 30.5 µM (inactive) in the experiment with NCI-H460. Besides, the GI50 with ACHN was 45 µM (inactive); in the experiment on CAKI-1, 64.3 µM (inactive); in the experiment on NCI-H23, 34.4 µM (inactive); in the experiment with OVCAR-5, > 100 µM (inactive); in the experiment with OVCAR-4, 21.4 µM (inactive); in the experiment with PC-3 it was > 100 µM (inactive). The GI50 with HCT-15 is greater than 100 µM; with Malme-3M, > 100 µM (inactive).

In the case of `COc1ccc(N(CN2C(=O)CCC2C(=O)O)C(C)=O)cc1` (stereo not given), the GI50 with OVCAR-3, in the experiment with HCT-116, in the experiment on A549, with HCC 2998, in the experiment on A498 and in the experiment on NCI-H226 was > 100 µM (inactive) each time. Moreover, the GI50 in the experiment with U-251, in the experiment with NCI/ADR-RES, in the experiment on KM12, in the experiment on UO-31, in the experiment with UACC-257 and in the experiment on NCI-H460 was > 100 µM (inactive) in each case. The GI50 with ACHN, in the experiment with CAKI-1, in the experiment on NCI-H23, in the experiment with OVCAR-5, in the experiment with OVCAR-4 and in the experiment with PC-3 was > 100 µM (inactive) throughout. Further, the GI50 in the experiment on HCT-15 was greater than 100 µM; in the experiment on Malme-3M it was > 100 µM (inactive).

Turning to `O=C1CC(c2ccc(Cl)cc2)C2(C(=O)NC(=S)NC2=O)C(c2ccc(Cl)cc2)C1` (stereo not given), the GI50 in the experiment on OVCAR-3 was 17.4 µM (inactive); in the experiment on HCT-116, 18.7 µM (inactive); with A549 it was 26.9 µM (inactive); in the experiment with HCC 2998 it was 25.8 µM (inactive); with A498 it was 15.9 µM (inactive); with NCI-H226 it was 21.7 µM (inactive). Moreover, the GI50 in the experiment with U-251 was 29.2 µM (inactive); in the experiment on NCI/ADR-RES, 20.8 µM (inactive); in the experiment with KM12 it was 18.5 µM (inactive); in the experiment with UO-31, 23.9 µM (inactive); in the experiment with UACC-257 it was 18.5 µM (inactive); with NCI-H460, 14.9 µM (inactive). In addition, the GI50 with ACHN is 36.2 µM (inactive); with CAKI-1, 25.1 µM (inactive); in the experiment with NCI-H23 it was 18.8 µM (inactive); in the experiment with OVCAR-5 it was 19.6 µM (inactive); with OVCAR-4 it was 17.5 µM (inactive); in the experiment on PC-3, 20.1 µM (inactive). The GI50 with HCT-15 was 23.7 µM; in the experiment with Malme-3M it was 21.4 µM (inactive).

Consider `COc1cc(/C=C2/SC(c3ccccc3)N(c3cc(Cl)ccc3Cl)C2=O)cc(OC)c1OC` (stereo not given), for which the GI50 was 52.2 µM (inactive) in the experiment on OVCAR-3; 46.3 µM (inactive) in the experiment with HCT-116; > 100 µM (inactive) in the experiment on A549; > 100 µM (inactive) in the experiment on HCC 2998; > 100 µM (inactive) in the experiment on A498; > 100 µM (inactive) in the experiment on NCI-H226. Besides, the GI50 is 63.4 µM (inactive) in the experiment on U-251; 64.4 µM (inactive) in the experiment on NCI/ADR-RES; 35.7 µM (inactive) in the experiment with KM12; 75.3 µM (inactive) with UO-31; > 100 µM (inactive) in the experiment with UACC-257; > 100 µM (inactive) in the experiment with NCI-H460. For the same compound, the GI50 in the experiment on ACHN is > 100 µM (inactive); in the experiment with CAKI-1, 23.2 µM (inactive); in the experiment with NCI-H23, > 100 µM (inactive); in the experiment on OVCAR-5 it was > 100 µM (inactive); with OVCAR-4, 49.8 µM (inactive); in the experiment on PC-3, 65.5 µM (inactive). For the same compound, the figures for the GI50 with HCT-15 and with Malme-3M were 50.6 µM and 62.8 µM (inactive), respectively.

As for `CC1(C)CC(=O)C(CC(C(=O)C(=O)Nc2cc(C(F)(F)F)ccc2Cl)C(=O)c2ccco2)C(=O)C1` (stereo not given), the GI50 in the experiment with OVCAR-3 is > 100 µM (inactive); in the experiment with HCT-116, > 100 µM (inactive); with A549, > 100 µM (inactive); in the experiment on HCC 2998 it was > 100 µM (inactive); with A498, 46.9 µM (inactive); in the experiment on NCI-H226, > 100 µM (inactive). The GI50 in the experiment with U-251, with NCI/ADR-RES, with KM12, in the experiment with UO-31, with UACC-257 and in the experiment on NCI-H460 was > 100 µM (inactive) each time. The GI50 with ACHN, with CAKI-1, in the experiment on NCI-H23, with OVCAR-5, with OVCAR-4 and in the experiment with PC-3 was > 100 µM (inactive) each time. Besides, the GI50 in the experiment with HCT-15 is greater than 100 µM; in the experiment with Malme-3M, > 100 µM (inactive).

For `COC(=O)/C=C\C(C#N)(C#N)/N=C/c1ccc(C)cc1`, the GI50 was 2.6 µM (inactive) with OVCAR-3; 1.76 µM (inactive) in the experiment on HCT-116; 17.7 µM (inactive) in the experiment on A549; 18.2 µM (inactive) with HCC 2998; 17.7 µM (inactive) in the experiment with A498; 8.75 µM (inactive) in the experiment on NCI-H226. Moreover, the GI50 is 13 µM (inactive) with U-251; 3.1 µM (inactive) in the experiment with NCI/ADR-RES; 18 µM (inactive) in the experiment with KM12; 2.49 µM (inactive) in the experiment on UO-31; 4.24 µM (inactive) with UACC-257; 19.6 µM (inactive) with NCI-H460. Besides, the GI50 was 2.3 µM (inactive) with ACHN; 2.59 µM (inactive) in the experiment on CAKI-1; 5.57 µM (inactive) in the experiment on NCI-H23; 19.7 µM (inactive) in the experiment on OVCAR-5; 3.89 µM (inactive) in the experiment with OVCAR-4; 6.44 µM (inactive) in the experiment on PC-3. Further, the GI50 with HCT-15 was 2.56 µM; in the experiment with Malme-3M, 2.28 µM (inactive).

As to `Oc1ccc2ccccc2c1-c1c(Nc2ccccc2)ccc2ccccc12`, the GI50 is 9.4 µM (inactive) in the experiment on OVCAR-3; 11.6 µM (inactive) with HCT-116; 18.5 µM (inactive) in the experiment with A549; 14 µM (inactive) with HCC 2998; 18.1 µM (inactive) with A498; 21 µM (inactive) in the experiment with NCI-H226. For the same compound, the GI50 is 21.8 µM (inactive) in the experiment with U-251; > 34.7 µM (inactive) in the experiment on NCI/ADR-RES; 17.9 µM (inactive) in the experiment on KM12; 15.7 µM (inactive) in the experiment with UO-31; 18.9 µM (inactive) in the experiment with UACC-257; 15.4 µM (inactive) with NCI-H460. Besides, the GI50 in the experiment on ACHN is 19.9 µM (inactive); in the experiment with CAKI-1, 14.9 µM (inactive); with NCI-H23, 15.6 µM (inactive); in the experiment on OVCAR-5, 16.3 µM (inactive); in the experiment on OVCAR-4 it was 12.3 µM (inactive); with PC-3, 18.4 µM (inactive). In addition, the GI50 in the experiment on HCT-15 is greater than 38 µM; with Malme-3M it was 8.53 µM (inactive).

Regarding `CC1(C)C2CCC(=O)C1C(OCc1ccccc1)C2` (stereo not given), the GI50 in the experiment on OVCAR-3 is > 100 µM (inactive); in the experiment on HCT-116, > 100 µM (inactive); in the experiment with A549, 21.9 µM (inactive); with HCC 2998, > 100 µM (inactive); in the experiment on A498, > 100 µM (inactive); with NCI-H226, > 100 µM (inactive). For the same compound, the GI50 with U-251 was > 100 µM (inactive); with NCI/ADR-RES it was > 100 µM (inactive); with KM12 it was > 100 µM (inactive); in the experiment on UO-31 it was > 100 µM (inactive); in the experiment on UACC-257, 85.7 µM (inactive); in the experiment on NCI-H460, > 100 µM (inactive). For the same compound, the GI50 in the experiment on ACHN is > 100 µM (inactive); in the experiment with CAKI-1, 24.1 µM (inactive); in the experiment with NCI-H23 it was > 100 µM (inactive); in the experiment with OVCAR-5, > 100 µM (inactive); in the experiment with OVCAR-4 it was > 100 µM (inactive); with PC-3, > 100 µM (inactive). Moreover, the GI50 in the experiment with HCT-15 was greater than 100 µM; in the experiment with Malme-3M, > 100 µM (inactive).

As for `Oc1nc(-c2cccc(F)c2)nc2ccccc12`, the GI50 was > 54.2 µM (inactive) in the experiment on OVCAR-3; 27.2 µM (inactive) in the experiment on HCT-116; 51.6 µM (inactive) in the experiment on A549; 35.1 µM (inactive) in the experiment with HCC 2998; 30.3 µM (inactive) in the experiment on A498; > 100 µM (inactive) in the experiment on NCI-H226. In addition, the GI50 in the experiment with U-251 was 36.5 µM (inactive); in the experiment on NCI/ADR-RES, 45.5 µM (inactive); in the experiment with KM12, > 79.6 µM (inactive); in the experiment with UO-31, 30.8 µM (inactive); in the experiment on UACC-257, > 91.6 µM (inactive); in the experiment with NCI-H460 it was 36.1 µM (inactive). For the same compound, the GI50 in the experiment with ACHN was 31.1 µM (inactive); with CAKI-1, > 100 µM (inactive); in the experiment on NCI-H23 it was 32.5 µM (inactive); with OVCAR-5 it was > 100 µM (inactive); in the experiment with OVCAR-4, 25 µM (inactive); in the experiment on PC-3, 55.5 µM (inactive). For the same compound, the GI50 with HCT-15 was greater than 100 µM; with Malme-3M, 45.8 µM (inactive).

These data come from ChEMBL document CHEMBL1201862, “PubChem BioAssay data set” (2004).
